Laboratory results reported in patent US11267825B2 (AICURIS GMBH & CO. KG, priority 2017, dated 2022).

Assays:
HBV = experiment: Determination of HBV DNA from the supernatants of HepAD38 cells (anti-HBV activity); assay type: cell-based, hepatitis B virus; details: Hepatitis B virus, 144 h; HBV DNA in HepAD38 supernatant at day 6; read-out: Cell Activity (EC50)
How it was run: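 EC50 values were obtained by non-linear regression of HBV DNA copy numbers measured by qPCR against pCH-9/3091 plasmid standards. The DNA came from filtered supernatants collected on day 6. Before that, tetracycline-withdrawn HepAD38 cells had been exposed to serial half-log compound dilutions, with tetracycline-treated cells as the non-producing control.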

HBV core protein = HBV core protein (UniProt P03146); assay type: biochemical; details: read-out: Assembly Activity (IC50); BODIPY-FL labelled core protein, assembly started with NaCl, read after 6 min
HBV core protein, sequence (P03146 whole entry, looked up, the tested form may be a part): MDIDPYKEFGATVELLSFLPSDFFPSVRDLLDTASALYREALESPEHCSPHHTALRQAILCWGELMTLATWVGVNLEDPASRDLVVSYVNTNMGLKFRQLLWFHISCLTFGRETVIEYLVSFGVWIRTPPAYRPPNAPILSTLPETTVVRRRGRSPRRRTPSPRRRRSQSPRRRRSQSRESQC
How it was run: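 Compounds tested at 8 concentrations in 0.5-log steps from 100, 31.6 or 10 μM against 1.0–2.0 μM BODIPY-FL-labelled Cys150 core dimers (residues 1–149), 50 mM HEPES pH 7.5. NaCl ([…] final) triggered assembly; quenching read at 6 min, 477/525 nm, with 2.5 M and 0 M NaCl as controls; EC50 by nonlinear fit.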

Structure (SMILES) | EC50 (HBV) [µM] | IC50 (HBV core protein) [µM]
CC(O)c1cc(F)cc2[nH]c(C(=O)N3CCc4nc(NCC5(CO)CC5)sc4C3)cc12 (stereo not drawn) [Example 249, 1-{6-fluoro-2-[2-({[1-(hydroxymethyl)cyclopropyl]methyl}amino)-4H,5H,6H,7H-[1,3]thiazolo[5,4-c]pyridine-5-carbonyl]-1H-indol-4-yl}ethan-1-ol] | < 1 | 5 to 10
CC(O)c1cccc2[nH]c(C(=O)N3CCc4nc(NCC5(CO)CC5)sc4C3)cc12 (stereo not drawn) [Example 250, 1-{2-[2-({[1-(hydroxymethyl)cyclopropyl]methyl}amino)-4H,5H,6H,7H-[1,3]thiazolo[5,4-c]pyridine-5-carbonyl]-1H-indol-4-yl}ethan-1-ol] | < 1 | < 100
O=C(c1cc2c(Cl)c(F)ccc2[nH]1)N1CCc2nc(NCC3(CO)CC3)sc2C1 [Example 251, [1-({[5-(4-chloro-5-fluoro-1H-indole-2-carbonyl)-4H,5H,6H,7H-[1,3]thiazolo[5,4-c]pyridin-2-yl]amino}methyl)cyclopropyl]methanol] | < 1 | < 5
O=C(c1cc2c(F)c(F)ccc2[nH]1)N1CCc2nc(NCC3(CO)CC3)sc2C1 [Example 252, [1-({[5-(4,5-difluoro-1H-indole-2-carbonyl)-4H,5H,6H,7H-[1,3]thiazolo[5,4-c]pyridin-2-yl]amino}methyl)cyclopropyl]methanol] | < 1 | < 5
O=C(c1cc2ccccc2[nH]1)N1CCc2nc(NCC3(O)CCOC3)sc2C1 (stereo not drawn) [Example 253, 3-({[5-(1H-indole-2-carbonyl)-4H,5H,6H,7H-[1,3]thiazolo[5,4-c]pyridin-2-yl]amino}methyl)oxolan-3-ol] | < 1 | < 5
CCc1ccc(F)c2[nH]c(C(=O)N3CCc4nc(NCC5CCOC5)sc4C3)cc12 (stereo not drawn) [Example 254, 5-(4-ethyl-7-fluoro-1H-indole-2-carbonyl)-N-[(oxolan-3-yl)methyl]-4H,5H,6H,7H-[1,3]thiazolo[5,4-c]pyridin-2-amine] | < 1 | < 5
CCc1cc(F)cc2[nH]c(C(=O)N3CCc4nc(NCC5CCOC5)sc4C3)cc12 (stereo not drawn) [Example 255, 5-(4-ethyl-6-fluoro-1H-indole-2-carbonyl)-N-[(oxolan-3-yl)methyl]-4H,5H,6H,7H-[1,3]thiazolo[5,4-c]pyridin-2-amine] | < 1 | < 5
CC(O)c1cc(F)cc2[nH]c(C(=O)N3CCc4nc(NCC5CCOC5)sc4C3)cc12 (stereo not drawn) [Example 258, 1-[6-fluoro-2-(2-{[(oxolan-3-yl)methyl]amino}-4H,5H,6H,7H-[1,3]thiazolo[5,4-c]pyridine-5-carbonyl)-1H-indol-4-yl]ethan-1-ol] | 1 to 10 | < 100
O=C(c1cc2ccccc2[nH]1)N1CCc2nc(NCC3CNCCO3)sc2C1 (stereo not drawn) [Example 260, 5-(1H-indole-2-carbonyl)-N—[(morpholin-2-yl)methyl]-4H,5H,6H,7H-[1,3]thiazolo[5,4-c]pyridin-2-amine] | 1 to 10 | < 5
CC(C)(CC(=O)Nc1nc2c(s1)CN(C(=O)c1cc3ccccc3[nH]1)CC2)C1CC1 [Example 261, 3-cyclopropyl-N-[5-(1H-indole-2-carbonyl)-4H,5H,6H,7H-[1,3]thiazolo[5,4-c]pyridin-2-yl]-3-methylbutanamide] | < 1 | < 100
CCC(C)(C)CC(=O)Nc1nc2c(s1)CN(C(=O)c1cc3ccccc3[nH]1)CC2 [Example 262, N-[5-(1H-indole-2-carbonyl)-4H,5H,6H,7H-[1,3]thiazolo[5,4-c]pyridin-2-yl]-3,3-dimethylpentanamide] | < 1 | < 100
CC(C)(C)CC(=O)Nc1nc2c(s1)CN(C(=O)c1cc3c(Cl)cccc3[nH]1)CC2 [Example 263, N-[5-(4-chloro-1H-indole-2-carbonyl)-4H,5H,6H,7H-[1,3]thiazolo[5,4-c]pyridin-2-yl]-3,3-dimethylbutanamide] | < 1 | 5 to 10
CC(C)(C)NC(=O)Nc1nc2c(s1)CN(C(=O)c1cc3ccccc3[nH]1)CC2 [Example 264, 3-tert-butyl-1-[5-(1H-indole-2-carbonyl)-4H,5H,6H,7H-[1,3]thiazolo[5,4-c]pyridin-2-yl]urea] | < 1 | 5 to 10
CC(C)(C)NC(=O)Nc1nc2c(s1)CN(C(=O)c1cc3c(Cl)cc(F)cc3[nH]1)CC2 [Example 265, 3-tert-butyl-1-[5-(4-chloro-6-fluoro-1H-indole-2-carbonyl)-4H,5H,6H,7H-[1,3]thiazolo[5,4-c]pyridin-2-yl]urea] | < 1 | < 100
CNC(=O)Nc1nc2c(s1)CN(C(=O)c1cc3c(Cl)cc(F)cc3[nH]1)CC2 [Example 266, 1-[5-(4-chloro-6-fluoro-1H-indole-2-carbonyl)-4H,5H,6H,7H-[1,3]thiazolo[5,4-c]pyridin-2-yl]-3-methylurea] | < 1 | < 5
CC1(C)CC1C(=O)Nc1nc2c(s1)CN(C(=O)c1cc3ccccc3[nH]1)CC2 (stereo not drawn) [Example 267, N-[5-(1H-indole-2-carbonyl)-4H,5H,6H,7H-[1,3]thiazolo[5,4-c]pyridin-2-yl]-2,2-dimethylcyclopropane-1-carboxamide] | < 1 | 5 to 10
CC1CC1C(=O)Nc1nc2c(s1)CN(C(=O)c1cc3ccccc3[nH]1)CC2 (stereo not drawn) [Example 268, N-[5-(1H-indole-2-carbonyl)-4H,5H,6H,7H-[1,3]thiazolo[5,4-c]pyridin-2-yl]-2-methylcyclopropane-1-carboxamide] | < 1 | 5 to 10
O=C(c1cc2ccccc2[nH]1)N1CCc2nc(N[C@@H]3CCCC[C@H]3O)sc2C1 [Example 269, (1R,2R)-2-{[5-(1H-indole-2-carbonyl)-4H,5H,6H,7H-[1,3]thiazolo[5,4-c]pyridin-2-yl]amino}cyclohexan-1-ol] | < 1 | < 5
O=C(c1cc2ccccc2[nH]1)N1CCc2nc(NCC3CCCOC3)sc2C1 (stereo not drawn) [Example 270, 5-(1H-indole-2-carbonyl)-N-[(oxan-3-yl)methyl]-4H,5H,6H,7H-[1,3]thiazolo[5,4-c]pyridin-2-amine] | < 1 | < 5
Cc1cc(F)cc2[nH]c(C(=O)N3CCc4nc(NCC5(CO)CC5)sc4C3)cc12 [Example 271, [1-({[5-(6-fluoro-4-methyl-1H-indole-2-carbonyl)-4H,5H,6H,7H-[1,3]thiazolo[5,4-c]pyridin-2-yl]amino}methyl)cyclopropyl]methanol] | < 1 | < 5
CCc1cccc2[nH]c(C(=O)N3CCc4nc(NCC5(CO)CC5)sc4C3)cc12 [Example 272, [1-({[5-(4-ethyl-1H-indole-2-carbonyl)-4H,5H,6H,7H-[1,3]thiazolo[5,4-c]pyridin-2-yl]amino}methyl)cyclopropyl]methanol] | < 1 | < 5
CC(C)(C)OC(=O)N1CCOC(CNc2nc3c(s2)CN(C(=O)c2cc4ccccc4[nH]2)CC3)C1 (stereo not drawn) [Example 273, tert-butyl 2-({[5-(1H-indole-2-carbonyl)-4H,5H,6H,7H-[1,3]thiazolo[5,4-c]pyridin-2-yl]amino}methyl)morpholine-4-carboxylate] | < 1 | 5 to 10
CC1(C(=O)Nc2nc3c(s2)CN(C(=O)c2cc4ccccc4[nH]2)CC3)CC1 [Example 274, N-[5-(1H-indole-2-carbonyl)-4H,5H,6H,7H-[1,3]thiazolo[5,4-c]pyridin-2-yl]-1-methylcyclopropane-1-carboxamide] | < 1 | < 5
CC(C)(C)C(=O)Nc1nc2c(s1)CN(C(=O)c1cc3ccccc3[nH]1)CC2 [Example 275, N-[5-(1H-indole-2-carbonyl)-4H,5H,6H,7H-[1,3]thiazolo[5,4-c]pyridin-2-yl]-2,2-dimethylpropanamide] | < 1 | 5 to 10
Nc1nc2c(s1)CN(C(=O)c1cc3cc(F)c(Cl)cc3[nH]1)CC2 [Example 277, 5-(6-chloro-5-fluoro-1H-indole-2-carbonyl)-4H,5H,6H,7H-[1,3]thiazolo[5,4-c]pyridin-2-amine] | < 1 | < 5
NC(=O)CNc1nc2c(s1)CN(C(=O)c1cc3ccccc3[nH]1)CC2 [Example 278, 2-{[5-(1H-indole-2-carbonyl)-4H,5H,6H,7H-[1,3]thiazolo[5,4-c]pyridin-2-yl]amino}acetamide] | 1 to 10 | < 100
O=C(c1cc2ccccc2[nH]1)N1CCc2nc(NCC(CO)CC3CC3)sc2C1 (stereo not drawn) [Example 282, 2-(cyclopropylmethyl)-3-{[5-(1H-indole-2-carbonyl)-4H,5H,6H,7H-[1,3]thiazolo[5,4-c]pyridin-2-yl]amino}propan-1-ol] | < 1 | 5 to 10
COC(C)(CO)CNc1nc2c(s1)CN(C(=O)c1cc3ccccc3[nH]1)CC2 (stereo not drawn) [Example 283, 3-{[5-(1H-indole-2-carbonyl)-4H,5H,6H,7H-[1,3]thiazolo[5,4-c]pyridin-2-yl]amino}-2-methoxy-2-methylpropan-1-ol] | < 1 | 5 to 10
O=C(c1cc2ccccc2[nH]1)N1CCc2nc(NCC(CO)C3CC3)sc2C1 (stereo not drawn) [Example 284, 2-cyclopropyl-3-{[5-(1H-indole-2-carbonyl)-4H,5H,6H,7H-[1,3]thiazolo[5,4-c]pyridin-2-yl]amino}propan-1-ol] | < 1 | < 5
O=C(c1cc2ccccc2[nH]1)N1CCc2nc(NCCn3cccn3)sc2C1 [Example 285, 5-(1H-indole-2-carbonyl)-N-[2-(1H-pyrazol-1-yl)ethyl]-4H,5H,6H,7H-[1,3]thiazolo[5,4-c]pyridin-2-amine] | < 1 | < 5
